# In patent publication US10076549B2, “Gastric health supplement and methods thereof” (SmartPak Equine LLC, priority 2012, dated 2018):
# Columns and labels:
# [1] = Gastric juice pH aspirated during gastroscopy, 42-day crossover study; type: in vivo, horse; settings: by Day 14, omeprazole 4 mg/kg orally q24 h
# Experimental: (§1) Gastroscopic examinations were performed on all the horses on Day 0, 14, 28, 35 and 42 and nonglandular gastric ulcer number (NGN) and severity (NGS) scores were assigned by the PI (FMA) who was masked to treatment (FIG. 2) (MacAllister et al. 1997). During gastroscopy, gastric juice was aspirated and pH measured.
# Gastric juice pH values can be determined as follows: gastric juice of a subject animal is aspirated through the biopsy channel of an endoscope and pH is measured at specified time intervals, particularly 1 hour before and then 1 hour after administration of a therapeutic agent or Supplement composition as disclosed herein. Gastric juice pH values can be compared between the times.
# [2] = tested on: nonglandular gastric ulcers; test: 42-day 2-period crossover equine health study: gastroscopic nonglandular gastric ulcer number (NGN) and severity (NGS) scores; type: in vivo, horse; settings: by Day 14
# Experimental: Eight healthy Thoroughbred and Thoroughbred-cross horses from the Equine Health Studies Program (EHSP) herd were used in this study. The study was performed as a 42-day 2-period crossover using a treatment group (n=8) and an untreated control (n=8).
# All horses were stall-confined and fed mixed grass hay and sweet feed (OMOLENE® 100; Gray Summit, Mo.). Horses were assigned to the two treatment groups stratified by gastric ulcer score recorded on day 1 of period 1. Treated horses were fed with a Supplement composition of Example 1 above (40 g, twice daily) added to the sweet feed and control horses received no feed supplement.
# Prior to beginning the study, all horses underwent physical examination. From Day 1 to Day 14, all horses were treated with omeprazole (GASTROGARD® paste, Merial Limited, Duluth, Ga.; 4 mg/kg, orally q24 h), then omeprazole was discontinued for the remainder of the study. All the horses remained stall-confined. From Day 28 to Day 35, all the horses underwent feed-deprivation, where they were muzzled and deprived of feed for 24 hours and then fed for 24 hours for a total of 96 hours to induce ulcers.
# During the feed-deprivation days, the horses were fed 10% of their normal sweet feed, and the treated horses received the Supplement composition of Example 1 above (SMARTPAK® Equine, Plymouth, Mass.). From Day 35 to Day 42, all the horses returned to their normal diet to allow for recovery. The timelines of the events occurring during the period of the 42-day study were depicted in FIG. 1.
# as §1
# equine ulcers = settings: background; cited from earlier work
# [3] = omeprazole paste 4 mg/kg orally q24 h Day 1-14
smiles,measurement,setting,value
COc1ccc2nc([S+]([O-])Cc3ncc(C)c(OC)c3C)[nH]c2c1 (stereo not drawn) [omeprazole],gastric juice pH,[1],increased significantly
same,horses with healed gastric ulcers in each study group,"[2]; omeprazole 4 mg/kg orally q24 h, 6/8 horses",75%
same,NGN score,[2]; [3],significantly decreased
same,NGS score,[2]; [3],significantly decreased
same,gastric juice pH value in horses,equine ulcers,increased
same,treating equine ulcers,equine ulcers,effective
